From PubChem BioAssay AID1996
Converted amounts (≈) assume the structure as drawn.

settings: buffer; pH 7.4; 200.0 µM

Row | Structure (SMILES) | solubility kinetic [µg/mL]
1 | Cc1cc(=O)[nH]c(SCC(=O)Nc2ccc(N3CCCCC3)cc2)n1 | 28.5 (≈ 79.5 µM)
2 | Cc1ccc(S(=O)(=O)N(C)C)cc1NC(=O)Nc1ccccc1 | < 0.2
3 | CCc1ccc(NC2=CC(=O)CC(C)(C)C2)cc1 | 16.1 (≈ 66.2 µM)
4 | O=C(O)CNC1c2ccccc2CSc2ccccc21 (centres undefined) | > 42.8
5 | Nc1nc(F)cc(N2CCCCCC2)n1 | > 31.5
6 | Cc1ccccc1NC(=O)C(NC1CCCCC1)C(C)C (centres undefined) | 6.7 (≈ 23.2 µM)
7 | Cc1cccc(NC(=O)c2cc(=O)[nH]c3ccccc23)c1 | 3.1 (≈ 11.1 µM)
8 | CCCCNc1c([N+](=O)[O-])ncn1C | > 29.7
9 | O=C(COc1ccc(F)cc1F)Nc1cccnc1 | 36.2 (≈ 137 µM)
10 | C=CCNC(=O)C(=O)Nc1cc2c3c(c1)CCC(=O)N3CCC2 | > 47
11 | N/C(=N\OC(=O)CSc1ccccc1)c1ccccn1 | > 43.1
12 | CCOc1ccc(CCNC(=O)COC(=O)c2ccc(C)s2)cc1OCC | 23.7 (≈ 60.5 µM)
13 | N#Cc1ccc(S(=O)(=O)NC2CCN(Cc3ccccc3)CC2)cc1 | 42.5 (≈ 120 µM)
14 | O=C(Nc1ccc(NC(=O)c2ccco2)cc1)c1ccco1 | 2.5 (≈ 8.44 µM)
15 | COCCCNc1nc(N)c([N+](=O)[O-])c(Nc2ccccc2OC)n1 | 1 (≈ 2.87 µM)
16 | COc1cc(OC)c(C(=O)NCc2ccco2)cc1OC | > 43.7
17 | O=[N+]([O-])/C=C/c1ccc2c(ccn2Cc2ccccc2)c1 | 0.6 (≈ 2.16 µM)
18 | Cc1ccc2c(CN3CCCCC3C)cc(=O)oc2c1.Cl (centres undefined) | 35.6
19 | CC(CNS(=O)(=O)c1ccccc1)Sc1ncccn1 (centres undefined) | > 46.4
20 | Cc1ccc(O)c(N/C=C/C(=O)c2ccc(F)cc2)c1 | 1.1 (≈ 4.05 µM)
21 | O=C(Nc1cccc2ccccc12)NC1Cc2ccccc2C1 | < 0.3
22 | Cc1ccc(NC(=O)c2ccc3nc[nH]c3c2)nc1 | > 37.8
23 | Cc1ccc(S(=O)(=O)NCCC(=O)NNc2c(F)c(F)cc(F)c2F)cc1 | > 60.8
24 | Cc1cc(=O)[nH]c(SCC(=O)NC2CCCCC2)n1 | 32.3 (≈ 115 µM)
25 | NC(N)=NC(N)=Nc1ccccc1 | > 26.6

Row | Structure (SMILES) | solubility kinetic [µg/mL]
26 | NC(=O)Cn1cc(C(=O)COc2ccccc2)c2ccccc21 | 14.6 (≈ 47.4 µM)
27 | Cc1cc(C(=O)Nc2ccc([N+](=O)[O-])cn2)cs1 | 6.2 (≈ 23.5 µM)
28 | Cc1ccc(NC(=O)c2cnccn2)nc1 | > 32.1
29 | Brc1cccc(C=Nc2cccc3ncccc23)c1 | 12.2 (≈ 39.2 µM)
30 | Cn1nnc(NC(=O)c2ccc(Br)o2)n1 | > 40.8
31 | Cc1c(CCC(=O)NC2CC2)c(=O)oc2cc(O)ccc12 | > 43.1
32 | COc1ccc(OCc2nc(-c3ccc(F)c(F)c3)cs2)cc1 | < 0.7
33 | Cc1ccc(-c2nc(-c3ccncc3)no2)c(C)c1 | 0.5 (≈ 1.99 µM)
34 | CNC(=O)CCCN1C(=O)c2ccccc2Sc2ncccc21 | > 49.1
35 | Cc1cc([N+](=O)[O-])c2c(c1C)C1C=CCC1C(c1ccccn1)N2 (centres undefined) | 9.3 (≈ 28.9 µM)
36 | CCNc1c([N+](=O)[O-])c(=O)n(CC)c2ccccc12 | 34.1 (≈ 131 µM)
37 | CC1=C(C(=O)OC(C)C)C(c2ccccc2)NC(=O)N1C (centres undefined) | > 43.3
38 | O=C(Nc1cccc2ccccc12)c1cccc(F)c1 | 5.8 (≈ 21.9 µM)
39 | COc1ccccc1C(=O)N/C(=C\c1ccccc1)C(=O)NCc1ccco1 | > 56.5
40 | COc1cc2c(cc1OC)C(C)N(S(=O)(=O)c1cccs1)CC2 (centres undefined) | 41.1 (≈ 116 µM)
41 | COCCNC(=S)Nc1ccc2[nH]c(=O)[nH]c2c1 | > 39.9
42 | CCC[N+](CC#CCO)(CC#Cc1ccccc1)CCC.[Br-] | > 54.6
43 | O=C(Nc1ccncc1)Nc1cccc(Cl)c1Cl | 24.1 (≈ 85.4 µM)
44 | Cn1c(=O)[nH]c2nc[nH]c2c1=O | > 24.9
45 | COc1ccccc1OCCn1c(=O)oc2ccc(C)cc21 | 4.2 (≈ 14 µM)
46 | Cc1cc(C)n2ncc(C(=O)O)c2n1 | > 28.7
47 | O=C(Nc1ccc(F)cc1F)N1CCCN(c2ccc(C(F)(F)F)cn2)CC1 | 7.3 (≈ 18.2 µM)
48 | COC(=O)c1[nH]c2ccccc2c1NC(=O)c1ccccc1F | 2.1 (≈ 6.72 µM)
49 | Nc1ccccc1C(=O)NCCN1CCNC1=O | 14.2 (≈ 57.2 µM)
